Read-outs that look alike come from different tables or passages of the source.

Series [1] can be described thus: physchem. The protocol:
Nanoparticle formulation of compound of Formula XVI. […] (cold) or at 20-25° C. (warm) and stored refrigerated or frozen with 10% sucrose.

Series [2] can be described thus: physchem. The source holds these as a separate data set.
A short description of series [3]: Aqueous solubility.

In the case of `CCCCCCCCCCCCCCCCCC(=O)[O][Pt]([NH2])([NH2])[n+]1cc2ccccc2c2ccccc21` [Compound 27, phenantriplatin (stearate) nitrate], the “saturated solubility in ethyl acetate (EA)” value in series [1] is “low”. Moreover, the results for the solubility in series [1] (organic solvent or mixture) and in series [2] were 1500 µg/mL and below 100 µg/mL, respectively.
On to phenanthriplatin [phenantriplatin], for which, in series [3], the aqueous solubility was found to be 5 mg/mL.

These data come from patent publication US20140088066A1, “PLATINUM COMPOUNDS, COMPOSITIONS AND METHODS FOR THE TREATMENT OF CANCER” (Blend Therapeutics, priority 2012, published 2014).
